# Patent publication US20020048549A1, “Radioactive transition metal nitride heterocomplex” (priority 1996, published 2002)
# Where two headings read alike, the source gives them in different places.
# Experiment: Biodistribution of 99mTc(N)(X)(DTC)+ heterocomplexes in rats
# Assay type: in vivo, male Spraque-Dawley rats (SD rats)
# Procedure: The biodistribution of a ^99mTc nitride heterocomplex represented by the general formula ^99mTc(N)(X)(Y) was investigated as follows: ^99mTc nitride heterocomplexes were synthesized using DTC as a bidentate ligand Y and each of the diphosphine compounds X described below, and the biodistribution in rats of each heterocomplex was investigated.
# Before being injected into rats, the contents of the vial were diluted with phosphate buffer (0.1 mol/dm^3, pH=7.06) containing 10% Tween 80 ([…]). The complexes were stable in the solutions and in human plasma for at least 6 hours.
# The biodistribution was measured using male Spraque-Dawley rats (SD rats) weighing 200 to 250 g. After 24 hours fasting, the rats were put under intraperitoneal anesthesia and given an injection in the jugular vein. Then, the organs were excised from the rats at different intervals of time, washed and then weighed. In addition, blood samples were collected and then weighed. The data on the biodistribution are expressed as the mean±significant difference of the percentage of radioactivity level per gram of the organ weight based on the dose of radioactivity, (% dose/g). The measurement was carried out using groups of 5 rats each.
compound,measurement,setting,value
CCCN1CC[P+](c2ccccc2)(c2ccccc2)[99Tc-2]2(#[N])([NH]N(C)C(SC)=[S+]2)[P+](c2ccccc2)(c2ccccc2)CC1 [^99mTc(N)(PNP1)(DTC)^+],Bone % dose/g,,0.244 ± 0.01 % dose/g
same,Heart % dose/g,,1.236 ± 0.08 % dose/g
same,Liver % dose/g,,3.593 ± 0.42 % dose/g
same,Spleen % dose/g,,1.948 ± 0.20 % dose/g
same,Blood % dose/g,0 min after injection,2.125 ± 0.3 % dose/g
same,Brain % dose/g,0 min after injection,0.143 ± 0.02 % dose/g
same,Intestine % dose/g,0 min after injection,0.418 ± 0.03 % dose/g
same,Kidney % dose/g,0 min after injection,2.66 ± 0.05 % dose/g
same,Lung % dose/g,0 min after injection,5.815 ± 0.04 % dose/g
same,Muscle % dose/g,0 min after injection,0.098 ± 0.00 % dose/g
same,Stomach % dose/g,0 min after injection,0.337 ± 0.00 % dose/g
same,Blood % dose/g,2 min after injection,1.062 ± 0.13 % dose/g
same,Bone % dose/g,2 min after injection,0.234 ± 0.06 % dose/g
same,Brain % dose/g,2 min after injection,0.086 ± 0.00 % dose/g
same,Heart % dose/g,2 min after injection,0.824 ± 0.01 % dose/g
same,Intestine % dose/g,2 min after injection,0.471 ± 0.00 % dose/g
same,Kidney % dose/g,2 min after injection,4.145 ± 0.64 % dose/g
same,Liver % dose/g,2 min after injection,5.555 ± 0.83 % dose/g
same,Lung % dose/g,2 min after injection,4.653 ± 0.65 % dose/g
same,Muscle % dose/g,2 min after injection,0.085 ± 0.01 % dose/g
same,Spleen % dose/g,2 min after injection,4.459 ± 0.09 % dose/g
same,Stomach % dose/g,2 min after injection,0.379 ± 0.02 % dose/g
same,Blood % dose/g,10 min after injection,0.495 ± 0.01 % dose/g
same,Bone % dose/g,10 min after injection,0.3 ± 0.05 % dose/g
same,Brain % dose/g,10 min after injection,0.041 ± 0.00 % dose/g
same,Heart % dose/g,10 min after injection,0.795 ± 0.06 % dose/g
same,Intestine % dose/g,10 min after injection,0.704 ± 0.08 % dose/g
same,Kidney % dose/g,10 min after injection,4.251 ± 0.02 % dose/g
same,Liver % dose/g,10 min after injection,5.795 ± 0.03 % dose/g
same,Lung % dose/g,10 min after injection,3.191 ± 0.60 % dose/g
same,Muscle % dose/g,10 min after injection,0.121 ± 0.02 % dose/g
same,Spleen % dose/g,10 min after injection,7.237 ± 0.88 % dose/g
same,Stomach % dose/g,10 min after injection,0.438 ± 0.03 % dose/g
same,Blood % dose/g,30 min after injection,0.285 ± 0.01 % dose/g
same,Bone % dose/g,30 min after injection,0.324 ± 0.05 % dose/g
same,Brain % dose/g,30 min after injection,0.027 ± 0.00 % dose/g
same,Heart % dose/g,30 min after injection,0.513 ± 0.07 % dose/g
same,Intestine % dose/g,30 min after injection,1.107 ± 0.31 % dose/g
same,Kidney % dose/g,30 min after injection,4.095 ± 0.73 % dose/g
same,Liver % dose/g,30 min after injection,5.976 ± 0.49 % dose/g
same,Lung % dose/g,30 min after injection,2.089 ± 0.16 % dose/g
same,Muscle % dose/g,30 min after injection,0.106 ± 0.00 % dose/g
same,Spleen % dose/g,30 min after injection,5.884 ± 2.7 % dose/g
same,Stomach % dose/g,30 min after injection,0.444 ± 0.09 % dose/g
same,Blood % dose/g,1 hr after injection,0.311 ± 0.03 % dose/g
same,Bone % dose/g,1 hr after injection,0.398 ± 0.12 % dose/g
same,Brain % dose/g,1 hr after injection,0.019 ± 0.00 % dose/g
same,Heart % dose/g,1 hr after injection,0.55 ± 0.04 % dose/g
same,Intestine % dose/g,1 hr after injection,0.896 ± 0.04 % dose/g
same,Kidney % dose/g,1 hr after injection,4.779 ± 0.21 % dose/g
same,Liver % dose/g,1 hr after injection,5.116 ± 0.00 % dose/g
same,Lung % dose/g,1 hr after injection,1.586 ± 0.16 % dose/g
same,Muscle % dose/g,1 hr after injection,0.302 ± 0.39 % dose/g
same,Spleen % dose/g,1 hr after injection,6.711 ± 1.27 % dose/g
same,Stomach % dose/g,1 hr after injection,0.625 ± 0.34 % dose/g
same,Blood % dose/g,2 hr after injection,0.22 ± 0.05 % dose/g
same,Bone % dose/g,2 hr after injection,0.347 ± 0.01 % dose/g
same,Brain % dose/g,2 hr after injection,0.025 ± 0.00 % dose/g
same,Heart % dose/g,2 hr after injection,0.603 ± 0.05 % dose/g
same,Intestine % dose/g,2 hr after injection,0.977 ± 0.42 % dose/g
same,Kidney % dose/g,2 hr after injection,5.327 ± 0.52 % dose/g
same,Liver % dose/g,2 hr after injection,3.524 ± 0.53 % dose/g
same,Lung % dose/g,2 hr after injection,1.716 ± 0.23 % dose/g
same,Muscle % dose/g,2 hr after injection,0.111 ± 0.01 % dose/g
same,Spleen % dose/g,2 hr after injection,4.747 ± 1.78 % dose/g
same,Stomach % dose/g,2 hr after injection,0.776 ± 0.07 % dose/g
same,Blood % dose/g,4 hr after injection,0.137 ± 0.02 % dose/g
same,Bone % dose/g,4 hr after injection,0.264 ± 0.10 % dose/g
same,Brain % dose/g,4 hr after injection,0.021 ± 0.00 % dose/g
same,Heart % dose/g,4 hr after injection,0.382 ± 0.04 % dose/g
same,Intestine % dose/g,4 hr after injection,0.906 ± 0.24 % dose/g
same,Kidney % dose/g,4 hr after injection,4.282 ± 0.67 % dose/g
same,Liver % dose/g,4 hr after injection,2.604 ± 0.25 % dose/g
same,Lung % dose/g,4 hr after injection,1.08 ± 0.16 % dose/g
same,Muscle % dose/g,4 hr after injection,0.077 ± 0.01 % dose/g
same,Spleen % dose/g,4 hr after injection,6.294 ± 1.29 % dose/g
same,Stomach % dose/g,4 hr after injection,0.719 ± 0.18 % dose/g
CSC1=[S+][99Tc-2]2(#[N])([NH]N1C)[P+](c1ccccc1)(c1ccccc1)CCOCC[P+]2(c1ccccc1)c1ccccc1 [^99mTc(N)(POP)(DTC)^+],Bone % dose/g,,0.225 ± 0.01 % dose/g
same,Heart % dose/g,,0.923 ± 0.04 % dose/g
same,Liver % dose/g,,3.662 ± 0.43 % dose/g
same,Spleen % dose/g,,2.202 ± 0.07 % dose/g
same,Blood % dose/g,0 min after injection,2.617 ± 0.04 % dose/g
same,Brain % dose/g,0 min after injection,0.142 ± 0.14 % dose/g
same,Intestine % dose/g,0 min after injection,0.482 ± 0.02 % dose/g
same,Kidney % dose/g,0 min after injection,3.141 ± 0.35 % dose/g
same,Lung % dose/g,0 min after injection,2.792 ± 0.18 % dose/g
same,Muscle % dose/g,0 min after injection,0.087 ± 0.00 % dose/g
same,Stomach % dose/g,0 min after injection,0.522 ± 0.09 % dose/g
same,Blood % dose/g,2 min after injection,1.254 ± 0.19 % dose/g
same,Bone % dose/g,2 min after injection,0.214 ± 0.05 % dose/g
same,Brain % dose/g,2 min after injection,0.073 ± 0.00 % dose/g
same,Heart % dose/g,2 min after injection,0.73 ± 0.07 % dose/g
same,Intestine % dose/g,2 min after injection,0.581 ± 0.06 % dose/g
same,Kidney % dose/g,2 min after injection,5.952 ± 0.74 % dose/g
same,Liver % dose/g,2 min after injection,4.821 ± 0.71 % dose/g
same,Lung % dose/g,2 min after injection,2.387 ± 0.08 % dose/g
same,Muscle % dose/g,2 min after injection,0.075 ± 0.00 % dose/g
same,Spleen % dose/g,2 min after injection,3.587 ± 0.99 % dose/g
same,Stomach % dose/g,2 min after injection,0.493 ± 0.02 % dose/g
same,Blood % dose/g,10 min after injection,0.542 ± 0.02 % dose/g
same,Bone % dose/g,10 min after injection,0.306 ± 0.07 % dose/g
same,Brain % dose/g,10 min after injection,0.029 ± 0.00 % dose/g
same,Heart % dose/g,10 min after injection,0.434 ± 0.05 % dose/g
same,Intestine % dose/g,10 min after injection,0.934 ± 0.03 % dose/g
same,Kidney % dose/g,10 min after injection,4.805 ± 0.51 % dose/g
same,Liver % dose/g,10 min after injection,6.161 ± 0.47 % dose/g
same,Lung % dose/g,10 min after injection,1.19 ± 0.40 % dose/g
same,Muscle % dose/g,10 min after injection,0.069 ± 0.01 % dose/g
same,Spleen % dose/g,10 min after injection,3.538 ± 0.70 % dose/g
same,Stomach % dose/g,10 min after injection,0.653 ± 0.06 % dose/g
same,Blood % dose/g,30 min after injection,0.547 ± 0.01 % dose/g
same,Bone % dose/g,30 min after injection,0.21 ± 0.02 % dose/g
same,Brain % dose/g,30 min after injection,0.023 ± 0.00 % dose/g
same,Heart % dose/g,30 min after injection,0.428 ± 0.05 % dose/g
same,Intestine % dose/g,30 min after injection,0.64 ± 0.00 % dose/g
same,Kidney % dose/g,30 min after injection,3.25 ± 1.12 % dose/g
same,Liver % dose/g,30 min after injection,6.199 ± 0.15 % dose/g
same,Lung % dose/g,30 min after injection,1.05 ± 0.13 % dose/g
same,Muscle % dose/g,30 min after injection,0.083 ± 0.03 % dose/g
same,Spleen % dose/g,30 min after injection,2.07 ± 0.55 % dose/g
same,Stomach % dose/g,30 min after injection,0.216 ± 0.01 % dose/g
same,Blood % dose/g,1 hr after injection,0.261 ± 0.14 % dose/g
same,Bone % dose/g,1 hr after injection,0.327 ± 0.02 % dose/g
same,Brain % dose/g,1 hr after injection,0.019 ± 0.00 % dose/g
same,Heart % dose/g,1 hr after injection,0.42 ± 0.05 % dose/g
same,Intestine % dose/g,1 hr after injection,1.236 ± 0.03 % dose/g
same,Kidney % dose/g,1 hr after injection,5.054 ± 0.18 % dose/g
same,Liver % dose/g,1 hr after injection,5.128 ± 0.15 % dose/g
same,Lung % dose/g,1 hr after injection,0.771 ± 0.09 % dose/g
same,Muscle % dose/g,1 hr after injection,0.068 ± 0.01 % dose/g
same,Spleen % dose/g,1 hr after injection,3.542 ± 1.23 % dose/g
same,Stomach % dose/g,1 hr after injection,0.944 ± 0.16 % dose/g
same,Blood % dose/g,2 hr after injection,0.145 ± 0.01 % dose/g
same,Bone % dose/g,2 hr after injection,0.296 ± 0.01 % dose/g
same,Brain % dose/g,2 hr after injection,0.018 ± 0.01 % dose/g
same,Heart % dose/g,2 hr after injection,0.384 ± 0.00 % dose/g
same,Intestine % dose/g,2 hr after injection,1.478 ± 0.09 % dose/g
same,Kidney % dose/g,2 hr after injection,5.145 ± 0.11 % dose/g
same,Liver % dose/g,2 hr after injection,3.05 ± 0.07 % dose/g
same,Lung % dose/g,2 hr after injection,0.757 ± 0.05 % dose/g
same,Muscle % dose/g,2 hr after injection,0.066 ± 0.03 % dose/g
same,Spleen % dose/g,2 hr after injection,4.32 ± 0.19 % dose/g
same,Stomach % dose/g,2 hr after injection,1.857 ± 0.22 % dose/g
same,Blood % dose/g,4 hr after injection,0.125 ± 0.00 % dose/g
same,Bone % dose/g,4 hr after injection,0.321 ± 0.01 % dose/g
same,Brain % dose/g,4 hr after injection,0.01 ± 0.00 % dose/g
same,Heart % dose/g,4 hr after injection,0.303 ± 0.01 % dose/g
same,Intestine % dose/g,4 hr after injection,1.843 ± 0.02 % dose/g
same,Kidney % dose/g,4 hr after injection,1.745 ± 0.11 % dose/g
same,Liver % dose/g,4 hr after injection,1.538 ± 0.01 % dose/g
same,Lung % dose/g,4 hr after injection,0.549 ± 0.03 % dose/g
same,Muscle % dose/g,4 hr after injection,0.067 ± 0.00 % dose/g
same,Spleen % dose/g,4 hr after injection,3.094 ± 0.50 % dose/g
same,Stomach % dose/g,4 hr after injection,1.74 ± 0.01 % dose/g
